Source: patent US8597688B2, “Pesticidal mixtures comprising isoxazoline compounds II” (BASF SE, priority 2008, dated 2013)
Where two headings read alike, the source gives them in different places.

Assays:
Type in all cases: cell-based
Phytophthora infestans = conditions: day 7
Botrytis cinerea = assay: Activity against the grey mold Botrytis cinerea in the microtiterplate test (Botrci); conditions: 7 days
Pyricularia oryzae = conditions: single active compound, Pyrior microtiter test
Septoria tritici = assay: Activity against leaf blotch on wheat caused by Septoria tritici (Septtr), microtiter test; conditions: day 7

## Cc1cc(C2=NOC(c3cc(Cl)cc(Cl)c3)(C(F)(F)F)C2)ccc1C(=O)NCC(=O)NCC(F)(F)F (stereo not drawn) [C.I.240]
Phytophthora infestans; 4 ppm
  Observed efficacy: 6%
Phytophthora infestans; 16 ppm
  Observed efficacy: 15%
Botrytis cinerea; 0.063 ppm
  Observed efficacy: 0%
Botrytis cinerea; 16 ppm
  Observed efficacy: 18%
Pyricularia oryzae; concentration 1 ppm
  Observed efficacy: 0
Pyricularia oryzae; concentration 4 ppm
  Observed efficacy: 11
Septoria tritici; 4 ppm
  Observed efficacy: 0%

## O=C(CNC(=O)c1ccc(C2=NOC(c3cc(Cl)cc(Cl)c3)(C(F)(F)F)C2)c2ccccc12)NCC(F)(F)F (stereo not drawn) [C.I.402]
Pyricularia oryzae; concentration 1 ppm
  Observed efficacy: 6
Pyricularia oryzae; concentration 4 ppm
  Observed efficacy: 35
Septoria tritici; 4 ppm
  Observed efficacy: 2%
Septoria tritici; 63 ppm
  Observed efficacy: 0%

## COC(=O)Nc1nc2ccccc2[nH]1 [Carbendazim]
Pyricularia oryzae; concentration 0.25 ppm
  Observed efficacy: 18

## N#Cc1c(Cl)c(Cl)c(Cl)c(C#N)c1Cl [Chlorothalonil, 2,4,5,6-tetrachloroisophthalonitrile, reference compound]
Phytophthora infestans; 1 ppm
  Observed efficacy: 53%
Botrytis cinerea; 1 ppm
  Observed efficacy: 43%

## Fc1ccc([C@]2(Cn3cncn3)O[C@H]2c2ccccc2Cl)cc1 [Epoxiconazol]
Pyricularia oryzae; concentration 0.063 ppm
  Observed efficacy: 0

## CC1(C(=O)Nc2ccc(O)c(Cl)c2Cl)CCCCC1 [Fenhexamid, N-(2,3-dichloro-4-hydroxyphenyl)-1-methylcyclohexanecarboxamide, reference compound]
Botrytis cinerea; 0.016 ppm
  Observed efficacy: 51%

## CO/N=C(/C1=NOCCO1)c1ccccc1Oc1ncnc(Oc2ccccc2Cl)c1F [Fluoxastrobin, (E)-{2-[6-(2-chlorophenoxy)-5-fluoropyrimidin-4-yloxy]phenyl}(5,6-dihydro-1,4,2-dioxazin-3-yl)methanone O-methyloxime, reference compound]
Septoria tritici; 0.25 ppm
  Observed efficacy: 68%

## CC(C)OC(=O)N[C@H](C(=O)N[C@H](C)c1nc2ccc(F)cc2s1)C(C)C [Fubenthiavalicarb (Benthivalicarb), isopropyl {(S)-1-[(1R)-1-(6-fluorobenzothiazol-2-yl)-ethylcarbamoyl]-2-methylpropyl}carbamate, reference compound]
Septoria tritici; 4 ppm
  Observed efficacy: 0%

## CC(C)NC(=O)N1CC(=O)N(c2cc(Cl)cc(Cl)c2)C1=O [Iprodion]
Pyricularia oryzae; concentration 0.24 ppm
  Observed efficacy: 4

## CO/C=C(/C(=O)OC)c1ccccc1COc1cccc(C(F)(F)F)n1 [Picoxystrobin]
Pyricularia oryzae; concentration 0.063 ppm
  Observed efficacy: 60

## COC(=O)N(OC)c1ccccc1COc1ccn(-c2ccc(Cl)cc2)n1 [Pyraclostrobin, methyl N-{2-[1-(4-chlorophenyl)-1H-pyrazol-3-yloxymethyl]phenyl}(N-methoxy)carbamate, reference compound]
Phytophthora infestans; 0.016 ppm
  Observed efficacy: 13%
Pyricularia oryzae; concentration 0.004 ppm
  Observed efficacy: 26

## CON=C(C(=O)OC)c1ccccc1CON=C(C)c1cccc(C(F)(F)F)c1 [Trifloxystrobin]
Pyricularia oryzae; concentration 0.063 ppm
  Observed efficacy: 32

## Mancozeb
Pyricularia oryzae; concentration 1 ppm
  Observed efficacy: 36
